Test system: LG0703-F948-PDC spheroids with HUVEC/MSC, viability
Assay: Anticancer human tumor LG0703-F948-PDC patient-derived lung adenocarcinoma cell line growth inhibition [IpAb]
Details: for IC50: curve of first compound; for viability, T/C: stronger effect = lower value
Summary of the method: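 Multi-cell spheroids of 60% tumour cells, 25% HUVEC and 15% MSC in ultra-low-attachment U-bottom wells, treated with agents combined with ipatasertib or abemaciclib. Half-log ranges top out near clinical Cmax, or 10 microM when Cmax is unknown.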

[1] = second compound 0.01 µM, first compound 0.00949 µM
[2] = second compound 0.01 µM, first compound 0.03 µM
[3] = second compound 0.01 µM, first compound 0.0949 µM
[4] = second compound 0.01 µM, first compound 0.3 µM
[5] = second compound 0.0316 µM, first compound 0.00949 µM
[6] = second compound 0.0316 µM, first compound 0.03 µM
[7] = second compound 0.0316 µM, first compound 0.0949 µM
[8] = second compound 0.0316 µM, first compound 0.3 µM
[9] = second compound 0.1 µM, first compound 0.00949 µM
[10] = second compound 0.1 µM, first compound 0.03 µM
[11] = second compound 0.1 µM, first compound 0.0949 µM
[12] = second compound 0.1 µM, first compound 0.3 µM
[13] = second compound 0.316 µM, first compound 0.00949 µM
[14] = second compound 0.316 µM, first compound 0.03 µM
[15] = second compound 0.316 µM, first compound 0.0949 µM
[16] = second compound 0.316 µM, first compound 0.3 µM
[17] = second compound 1 µM, first compound 0.00949 µM
[18] = second compound 1 µM, first compound 0.03 µM
[19] = second compound 1 µM, first compound 0.0949 µM
[20] = second compound 1 µM, first compound 0.3 µM
[21] = second compound 0.01 µM, first compound 0.0316 µM
[22] = second compound 0.01 µM, first compound 0.1 µM
[23] = second compound 0.01 µM, first compound 0.316 µM
[24] = second compound 0.01 µM, first compound 1 µM
[25] = second compound 0.0316 µM, first compound 0.0316 µM
[26] = second compound 0.0316 µM, first compound 0.1 µM
[27] = second compound 0.0316 µM, first compound 0.316 µM
[28] = second compound 0.0316 µM, first compound 1 µM
[29] = second compound 0.1 µM, first compound 0.0316 µM
[30] = second compound 0.1 µM, first compound 0.1 µM
[31] = second compound 0.1 µM, first compound 0.316 µM
[32] = second compound 0.1 µM, first compound 1 µM
[33] = second compound 0.316 µM, first compound 0.0316 µM
[34] = second compound 0.316 µM, first compound 0.1 µM
[35] = second compound 0.316 µM, first compound 0.316 µM
[36] = second compound 0.316 µM, first compound 1 µM
[37] = second compound 1 µM, first compound 0.0316 µM
[38] = second compound 1 µM, first compound 0.1 µM
[39] = second compound 1 µM, first compound 0.316 µM
[40] = second compound 1 µM, first compound 1 µM
[41] = second compound 0.01 µM, first compound 3.16 µM
[42] = second compound 0.01 µM, first compound 10 µM
[43] = second compound 0.0316 µM, first compound 3.16 µM
[44] = second compound 0.0316 µM, first compound 10 µM
[45] = second compound 0.1 µM, first compound 3.16 µM
[46] = second compound 0.1 µM, first compound 10 µM
[47] = second compound 0.316 µM, first compound 3.16 µM
[48] = second compound 0.316 µM, first compound 10 µM
[49] = second compound 1 µM, first compound 3.16 µM
[50] = second compound 1 µM, first compound 10 µM
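Note: spheroids exposed to compounds for seven days before readout.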
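Throughout, for viability, T/C: T/C percent relative to DMSO vehicle wells set as 100% viability.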

CC(=O)c1c(C)c2cnc(Nc3ccc(N4CCNCC4)cn3)nc2n(C2CCCC2)c1=O + CCN1CCN(Cc2ccc(Nc3ncc(F)c(-c4cc(F)c5nc(C)n(C(C)C)c5c4)n3)nc2)CC1
IC50 (second compound 0.01 µM): > 300 nM
IC50 (second compound 0.0316 µM): > 300 nM
IC50 (second compound 0.1 µM): > 300 nM
IC50 (second compound 0.316 µM): > 300 nM
IC50 (second compound 1 µM): > 300 nM
viability, T/C (second compound 0.01 µM, first compound 0.000949 µM): 106%
viability, T/C (second compound 0.01 µM, first compound 0.003 µM): 102%
viability, T/C [1]: 92%
viability, T/C [2]: 89.5%
viability, T/C [3]: 88.7%
viability, T/C [4]: 83.9%
viability, T/C (second compound 0.0316 µM, first compound 0.000949 µM): 97.9%
viability, T/C (second compound 0.0316 µM, first compound 0.003 µM): 85.7%
viability, T/C [5]: 84.5%
viability, T/C [6]: 97.8%
viability, T/C [7]: 83.5%
viability, T/C [8]: 76.8%
viability, T/C (second compound 0.1 µM, first compound 0.000949 µM): 81.7%
viability, T/C (second compound 0.1 µM, first compound 0.003 µM): 77.7%
viability, T/C [9]: 71.6%
viability, T/C [10]: 81.9%
viability, T/C [11]: 92.1%
viability, T/C [12]: 70.5%
viability, T/C (second compound 0.316 µM, first compound 0.000949 µM): 89.1%
viability, T/C (second compound 0.316 µM, first compound 0.003 µM): 86.8%
viability, T/C [13]: 88%
viability, T/C [14]: 90.9%
viability, T/C [15]: 84.7%
viability, T/C [16]: 81.4%
viability, T/C (second compound 1 µM, first compound 0.000949 µM): 82.3%
viability, T/C (second compound 1 µM, first compound 0.003 µM): 77.3%
viability, T/C [17]: 54.4%
viability, T/C [18]: 83%
viability, T/C [19]: 86.4%
viability, T/C [20]: 79.7%

CC(C)(C)c1cnc(CSc2cnc(NC(=O)C3CCNCC3)s2)o1 + CCN1CCN(Cc2ccc(Nc3ncc(F)c(-c4cc(F)c5nc(C)n(C(C)C)c5c4)n3)nc2)CC1
IC50 (second compound 0.01 µM): 77 nM
IC50 (second compound 0.0316 µM): 50.9 nM
IC50 (second compound 0.1 µM): 51.7 nM
IC50 (second compound 0.316 µM): 39.4 nM
IC50 (second compound 1 µM): 31.9 nM
viability, T/C [1]: 98.5%
viability, T/C [2]: 86%
viability, T/C [3]: 43%
viability, T/C [4]: 0.52%
viability, T/C (second compound 0.01 µM, first compound 0.949 µM): 0.27%
viability, T/C (second compound 0.01 µM, first compound 3 µM): 0.36%
viability, T/C [5]: 79.2%
viability, T/C [6]: 67.3%
viability, T/C [7]: 29.3%
viability, T/C [8]: 0.36%
viability, T/C (second compound 0.0316 µM, first compound 0.949 µM): 0.13%
viability, T/C (second compound 0.0316 µM, first compound 3 µM): 0.27%
viability, T/C [9]: 74.1%
viability, T/C [10]: 71.5%
viability, T/C [11]: 25.9%
viability, T/C [12]: 0.39%
viability, T/C (second compound 0.1 µM, first compound 0.949 µM): 0.19%
viability, T/C (second compound 0.1 µM, first compound 3 µM): 0.29%
viability, T/C [13]: 76.2%
viability, T/C [14]: 62%
viability, T/C [15]: 11.2%
viability, T/C [16]: 0.34%
viability, T/C (second compound 0.316 µM, first compound 0.949 µM): 0.2%
viability, T/C (second compound 0.316 µM, first compound 3 µM): 0.3%
viability, T/C [17]: 77.1%
viability, T/C [18]: 48.5%
viability, T/C [19]: 29.2%
viability, T/C [20]: 0.4%
viability, T/C (second compound 1 µM, first compound 0.949 µM): 0.41%
viability, T/C (second compound 1 µM, first compound 3 µM): 0.31%

COc1c(OCCCN2CCOCC2)ccc2c3n(c(=NC(=O)c4cnc(N)nc4)nc12)CCN3 + CCN1CCN(Cc2ccc(Nc3ncc(F)c(-c4cc(F)c5nc(C)n(C(C)C)c5c4)n3)nc2)CC1
IC50 (second compound 0.01 µM): 36.7 nM
IC50 (second compound 0.0316 µM): 32.2 nM
IC50 (second compound 0.1 µM): 30.6 nM
IC50 (second compound 0.316 µM): 25.3 nM
IC50 (second compound 1 µM): 17 nM
viability, T/C (second compound 0.01 µM, first compound 0.00316 µM): 101%
viability, T/C (second compound 0.01 µM, first compound 0.01 µM): 79.2%
viability, T/C [21]: 58.3%
viability, T/C [22]: 20.7%
viability, T/C [23]: 5.32%
viability, T/C [24]: 3.66%
viability, T/C (second compound 0.0316 µM, first compound 0.00316 µM): 90.4%
viability, T/C (second compound 0.0316 µM, first compound 0.01 µM): 82.8%
viability, T/C [25]: 47.6%
viability, T/C [26]: 22.8%
viability, T/C [27]: 4.08%
viability, T/C [28]: 3.07%
viability, T/C (second compound 0.1 µM, first compound 0.00316 µM): 85.4%
viability, T/C (second compound 0.1 µM, first compound 0.01 µM): 77.1%
viability, T/C [29]: 48%
viability, T/C [30]: 21.2%
viability, T/C [31]: 5.61%
viability, T/C [32]: 3.57%
viability, T/C (second compound 0.316 µM, first compound 0.00316 µM): 81.6%
viability, T/C (second compound 0.316 µM, first compound 0.01 µM): 71.2%
viability, T/C [33]: 43.7%
viability, T/C [34]: 23.7%
viability, T/C [35]: 9.48%
viability, T/C [36]: 9.41%
viability, T/C (second compound 1 µM, first compound 0.00316 µM): 82.3%
viability, T/C (second compound 1 µM, first compound 0.01 µM): 63%
viability, T/C [37]: 33.9%
viability, T/C [38]: 24.6%
viability, T/C [39]: 19.3%
viability, T/C [40]: 11.8%

Cc1nc(NC(=O)N2CCCC2C(N)=O)sc1-c1ccnc(C(C)(C)C(F)(F)F)c1 (stereo not given) + CCN1CCN(Cc2ccc(Nc3ncc(F)c(-c4cc(F)c5nc(C)n(C(C)C)c5c4)n3)nc2)CC1
IC50 (second compound 0.01 µM): 1480 nM
IC50 (second compound 0.0316 µM): 1120 nM
IC50 (second compound 0.1 µM): 676 nM
IC50 (second compound 0.316 µM): 955 nM
IC50 (second compound 1 µM): 421 nM
viability, T/C [21]: 93.3%
viability, T/C [22]: 88.1%
viability, T/C [23]: 81.3%
viability, T/C [24]: 61.2%
viability, T/C [41]: 28.8%
viability, T/C [42]: 3.09%
viability, T/C [25]: 95.3%
viability, T/C [26]: 78.9%
viability, T/C [27]: 64.9%
viability, T/C [28]: 60.9%
viability, T/C [43]: 25.5%
viability, T/C [44]: 2.8%
viability, T/C [29]: 83.6%
viability, T/C [30]: 83.2%
viability, T/C [31]: 49.9%
viability, T/C [32]: 46.4%
viability, T/C [45]: 33%
viability, T/C [46]: 3.21%
viability, T/C [33]: 81.9%
viability, T/C [34]: 79.3%
viability, T/C [35]: 60.9%
viability, T/C [36]: 50.8%
viability, T/C [47]: 30.6%
viability, T/C [48]: 9.55%
viability, T/C [37]: 75.8%
viability, T/C [38]: 65.5%
viability, T/C [39]: 40.8%
viability, T/C [40]: 50%
viability, T/C [49]: 32.6%
viability, T/C [50]: 12.4%

Cn1nccc1Nc1nccc(-c2ccn(C(CO)c3ccc(Cl)c(F)c3)c(=O)c2)n1 (stereo not given) + CCN1CCN(Cc2ccc(Nc3ncc(F)c(-c4cc(F)c5nc(C)n(C(C)C)c5c4)n3)nc2)CC1
IC50 (second compound 0.01 µM): > 10000 nM
IC50 (second compound 0.0316 µM): 6420 nM
IC50 (second compound 0.1 µM): > 10000 nM
IC50 (second compound 0.316 µM): 7430 nM
IC50 (second compound 1 µM): > 10000 nM
viability, T/C [21]: 90.8%
viability, T/C [22]: 77%
viability, T/C [23]: 78.3%
viability, T/C [24]: 67.7%
viability, T/C [41]: 76.7%
viability, T/C [42]: 68%
viability, T/C [25]: 89.9%
viability, T/C [26]: 77.5%
viability, T/C [27]: 65%
viability, T/C [28]: 63%
viability, T/C [43]: 76.6%
viability, T/C [44]: 34.8%
viability, T/C [29]: 81.9%
viability, T/C [30]: 73.4%
viability, T/C [31]: 55.9%
viability, T/C [32]: 58.9%
viability, T/C [45]: 62.3%
viability, T/C [46]: 46.6%
viability, T/C [33]: 73%
viability, T/C [34]: 77.2%
viability, T/C [35]: 56.6%
viability, T/C [36]: 69.2%
viability, T/C [47]: 63.4%
viability, T/C [48]: 45.4%
viability, T/C [37]: 73.9%
viability, T/C [38]: 64.2%
viability, T/C [39]: 45.9%
viability, T/C [40]: 61.6%
viability, T/C [49]: 66.2%
viability, T/C [50]: 51%
